Laboratory results taken from patent US9895342B2, “Cannabinoids for use in the treatment of neuropathic pain” (GW Pharma Limited, priority 2011, dated 2018).

Each compound was assayed on SNI mice (assay: Thermal hyperalgesia (Plantar Test Apparatus, paw withdrawal latency) in spared nerve injury mice). Conditions: 2.5 mg/kg.
Type: in vivo
Protocol: (§1) Peripheral neuropathic pain is produced by multiple etiological factors that initiate a number of diverse mechanisms at different sites and in different disease states. Spared nerve injury (SNI) consists of partial ligation and transaction of the sciatic nerve which evolves in neuropathic pain whose typical manifestations are represented by thermal hyperalgesia and tactile allodynia.
(§2) Chronic pain symptoms are measured through changes in thermoceptive responses (which is indicative of thermal hyperalgesia) using Plantar Test Apparatus (Ugo Basile, Varese, Italy) and in mechanical paw withdrawal threshold (which is indicative of mechanical allodynia) by a Dynamic Plantar Aesthesiometer (Ugo Basile, Varese, Italy). Nociceptive responses were measured before and after surgery in groups of mice differently treated (vehicle or drugs different combinations).
(§3) The cannabinoids tested were CBG, CBC, CBDV, and THCV. […] The cannabinoids were prepared from whole plant extracts of cannabis plants which had been purified. The cannabinoids were dissolved in ringer/0.5% dimethyl sulfoxide (DMSO), for intraperitoneal (i.p.) administration.
(§4) Male CD-1 mice (35-40 g) were housed, 3 per cage, under controlled illumination (12:12 h light:dark cycle; light on 06.00 h) and environmental conditions (room temperature 20-22° C., humidity 55-60%) for at least 1 week before the commencement of experiments. Mouse chow and tap water were available ad libitum. The experimental procedures were approved by the Ethic Committee of the Second University of Naples. Animal care was in compliance with the IASP and European Community (E.C. L358/1 18/12/86) guidelines on the use and protection of animals in experimental research. All efforts were made to minimize animal suffering and to reduce the number of animals used.
(§5) Behavioural testing was performed before surgery to establish a baseline for comparison with post-surgical values. Mononeuropathy was induced according to the method of Bourquin and Decosterd (2006).
(§6) Mice were anaesthetized with sodium pentobarbital (60 mg/kg i.p.). The right hindlimb was immobilized in a lateral position and slightly elevated. Incision was made at mid-thigh level using the femur as a landmark. The sciatic nerve was exposed at mid-thigh level distal to the trifurcation and freed of connective tissue; the three peripheral branches (sural, common peroneal, and tibial nerves) of the sciatic nerve were exposed without stretching nerve structures.
(§7) Both tibial and common peroneal nerves were ligated and transacted together. A micro-surgical forceps with curved tips was delicately placed below the tibial and common peroneal nerves to slide the thread (5.0 silk, Ethicon, Johnson, and Johnson Intl, Brussels, Belgium) around the nerves. A tight ligation of both nerves was performed. The sural nerve was carefully preserved by avoiding any nerve stretch or nerve contact with surgical tools. Muscle and skin were closed in two distinct layers with silk 5.0 sutures.
(§8) Intense, reproducible and long-lasting thermal hyperalgesia and mechanical allodynia-like behaviors are measurable in the non-injured sural nerve skin territory. The SNI model offers the advantage of a distinct anatomical distribution with an absence of co-mingling of injured and non-injured nerve fibers distal to the lesion such as the injured and non-injured nerves and territories can be readily identified and manipulated for further analysis (i.e. behavioral assessment).
(§9) The sham procedure consisted of the same surgery without ligation and transection of the nerves.
(§10) The groups of mice were divided as follows, each cannabinoid tested has its own group of mice:
(§11) The cannabinoids were dosed daily for 14 days. Doses for all cannabinoids tested were: 2.5 and 5.0 mg/Kg. Vehicle solution was 0.5% DMSO in ringer solution.
Thermal hyperalgesia was evaluated by using a Plantar Test Apparatus (Ugo Basile, Varese, Italy). […]
For `CCCCCc1cc(O)c(C/C=C(\C)CCC=C(C)C)c(O)c1` [CBG, cannabigerol], the “overall efficacy, thermal withdrawal” value was “highest thermal withdrawal latency of all the cannabinoids”.

Same assay, conditions: 2.5 mg/kg, day 3
In the case of `CCCCCc1cc(O)c(C/C=C(\C)CCC=C(C)C)c(O)c1` [CBG, cannabigerol], the “THERMAL WITHDRAWAL LATENCY” value is reported as “increase in the amount of thermal withdrawal latency”.

Same assay, conditions: 5.0 mg/kg, day 3
In the case of `CCCCCc1cc(O)c(C/C=C(\C)CCC=C(C)C)c(O)c1` [CBG, cannabigerol], the “THERMAL WITHDRAWAL LATENCY” value is reported as “able to increase the amount of time before the animal withdrew its paw”.

Same assay, conditions: 2.5 vs 5 mg/kg
For `CCCCCc1cc(O)c(C/C=C(\C)CCC=C(C)C)c(O)c1` [CBG, cannabigerol], the “dose-dependence of effect on thermal withdrawal latency” value was “do not appear to be dose-dependent”.

Same assay, conditions: SNI mice, 2.5 mg/kg i.p. daily, DAY 3
`CCCCCc1cc(O)c(C/C=C(\C)CCC=C(C)C)c(O)c1` [CBG, cannabigerol] was tested, and the “THERMAL WITHDRAWAL LATENCY” value was 5.5 s.

Same assay, conditions: SNI mice, 2.5 mg/kg i.p. daily, DAY 7
For `CCCCCc1cc(O)c(C/C=C(\C)CCC=C(C)C)c(O)c1` [CBG, cannabigerol], the “THERMAL WITHDRAWAL LATENCY” value was 5.4 s.

Same assay, conditions: SNI mice, 2.5 mg/kg i.p. daily, DAY 14
In the case of `CCCCCc1cc(O)c(C/C=C(\C)CCC=C(C)C)c(O)c1` [CBG, cannabigerol], the “THERMAL WITHDRAWAL LATENCY” value is reported as 7.0 s.

Same assay, conditions: SNI mice, 5 mg/kg i.p. daily, DAY 3
`CCCCCc1cc(O)c(C/C=C(\C)CCC=C(C)C)c(O)c1` [CBG, cannabigerol] was tested, and the “THERMAL WITHDRAWAL LATENCY” value was 7.8 s.

Same assay, conditions: SNI mice, 5 mg/kg i.p. daily, DAY 7
For `CCCCCc1cc(O)c(C/C=C(\C)CCC=C(C)C)c(O)c1` [CBG, cannabigerol], the “THERMAL WITHDRAWAL LATENCY” value was 7.6 s.

Same assay, conditions: SNI mice, 5 mg/kg i.p. daily, DAY 14
For `CCCCCc1cc(O)c(C/C=C(\C)CCC=C(C)C)c(O)c1` [CBG, cannabigerol], the “THERMAL WITHDRAWAL LATENCY” value was 7.5 s.

Same assay, conditions: thermal withdrawal data
In the case of `CCCCCc1cc(O)c(C/C=C(\C)CCC=C(C)C)c(O)c1` [CBG, cannabigerol], the “ability to treat neuropathic pain compared with CBD” value is reported as “superior to CBD”.

Each compound was assayed on SNI mice (assay: Mechanical allodynia (Dynamic Plantar Aesthesiometer, paw withdrawal threshold) in spared nerve injury mice). Conditions: SNI mice, 2.5 mg/kg i.p. daily, DAY 3.
Type: in vivo
Protocol: as §1, §2, §3, §4, §5, §6, §7, §8, §9, §10, §11
Mechanical allodynia was measured by using Dynamic Plantar Anesthesiometer (Ugo Basile, Varese, Italy). […]
With `CCCCCc1cc(O)c(C/C=C(\C)CCC=C(C)C)c(O)c1` [CBG, cannabigerol] the “MECHANICAL WITHDRAWAL THRESHOLD” value was 3.4 g.

Same assay, conditions: SNI mice, 2.5 mg/kg i.p. daily, DAY 7
`CCCCCc1cc(O)c(C/C=C(\C)CCC=C(C)C)c(O)c1` [CBG, cannabigerol] was tested, and the “MECHANICAL WITHDRAWAL THRESHOLD” value was 6.1 g.

Same assay, conditions: SNI mice, 2.5 mg/kg i.p. daily, DAY 14
With `CCCCCc1cc(O)c(C/C=C(\C)CCC=C(C)C)c(O)c1` [CBG, cannabigerol] the “MECHANICAL WITHDRAWAL THRESHOLD” value was 7.8 g.

Same assay, conditions: SNI mice, 5 mg/kg i.p. daily, DAY 3
In the case of `CCCCCc1cc(O)c(C/C=C(\C)CCC=C(C)C)c(O)c1` [CBG, cannabigerol], the “MECHANICAL WITHDRAWAL THRESHOLD” value is reported as 6.0 g.

Same assay, conditions: SNI mice, 5 mg/kg i.p. daily, DAY 7
`CCCCCc1cc(O)c(C/C=C(\C)CCC=C(C)C)c(O)c1` [CBG, cannabigerol] was tested, and the “MECHANICAL WITHDRAWAL THRESHOLD” value was 6.1 g.

Same assay, conditions: SNI mice, 5 mg/kg i.p. daily, DAY 14
With `CCCCCc1cc(O)c(C/C=C(\C)CCC=C(C)C)c(O)c1` [CBG, cannabigerol] the “MECHANICAL WITHDRAWAL THRESHOLD” value was 7.8 g.

Same assay, conditions: both of the doses tested (2.5 and 5 mg/kg)
For `CCCCCc1cc(O)c(C/C=C(\C)CCC=C(C)C)c(O)c1` [CBG, cannabigerol], the “overall efficacy, mechanical withdrawal” value was “good efficacy”.

Same assay, conditions: mechanical withdrawal data
`CCCCCc1cc(O)c(C/C=C(\C)CCC=C(C)C)c(O)c1` [CBG, cannabigerol] was tested, and the “ability to treat neuropathic pain compared with CBD” value was “superior to CBD”.
